The numbers were not newly measured in patent publication US20050287177A1, “Pharmaceutical compositions” (Glaxo Group Unlimited and Smithkline Beecham Corp., priority 2002, published 2005), which cites them from elsewhere.

Molecules are shown by their SMILES.

For data set [1] the following is noted: elimination.
For data set [2] the following is noted: colon versus small intestine.

On to `Cc1cn([C@H]2C[C@H](N=[N+]=[N-])[C@@H](CO)O2)c(=O)[nH]c1=O` [Zidovudine, 3′-azido-3′-deoxythymidine], for which the terminal half-life in data set [1] was 1.5 to 2 h. Moreover, the colonic absorption entry in data set [2] was “very low”.
